What is called Ki is the dissociation constant of the complex between target and ligand, obtained from inhibition or displacement. Read a high Ki as lower affinity.

T1 sequence (P50406 whole entry): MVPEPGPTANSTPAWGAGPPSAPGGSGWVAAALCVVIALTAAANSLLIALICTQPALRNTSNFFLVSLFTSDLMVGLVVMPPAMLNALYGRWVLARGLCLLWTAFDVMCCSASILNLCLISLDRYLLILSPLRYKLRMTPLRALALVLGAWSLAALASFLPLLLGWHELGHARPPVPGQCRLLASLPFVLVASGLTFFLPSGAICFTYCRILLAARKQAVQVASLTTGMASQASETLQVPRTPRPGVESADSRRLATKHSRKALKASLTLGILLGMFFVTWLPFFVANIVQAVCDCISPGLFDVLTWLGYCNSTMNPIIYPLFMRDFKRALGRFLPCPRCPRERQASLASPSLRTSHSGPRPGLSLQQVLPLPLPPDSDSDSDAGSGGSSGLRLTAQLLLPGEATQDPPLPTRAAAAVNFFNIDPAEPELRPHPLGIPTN

This assay concerns the target T1, human cloned 5-HT6 receptors (Homo sapiens, UniProt P50406).
T1 construct: expressed in transfected cells; host or cells: Hela cells
The assay is described as follows: 5-HT6 binding affinity ([3H]-LSD displacement, membranes of Hela cells expressing human cloned 5-HT6 receptors). Conditions: [3H]-LSD 3.0 nM, 120 min, room temperature, Hela cell membranes. The method, then:
The affinity of test compounds for the serotonin 5-HT6 receptor is evaluated in the following manner. Cultured Hela cells expressing human cloned 5-HT6 receptors are harvested and centrifuged at low speed (1,000×g) for 10.0 min to remove the culture media. The harvested cells are suspended in half volume of fresh physiological phosphate buffered saline solution and recentrifuged at the same speed. This operation is repeated. The collected cells are then homogenized in ten volumes of 50 mM Tris.HCl (pH 7.4) and 0.5 mM EDTA. The homogenate is centrifuged at 40,000×g for 30.0 min and the precipitate is collected. The obtained pellet is resuspended in 10 volumes of Tris.HCl buffer and recentrifuged at the same speed. The final pellet is suspended in a small volume of Tris.HCl buffer and the tissue protein content is determined in aliquots of 10-25 μl volumes. Bovine Serum Albumin is used as the standard in the protein determination according to the method described in Lowry et al., J. Biol. Chem., 193:265 (1951). The volume of the suspended cell membranes is adjusted to give a tissue protein concentration of 1.0 mg/ml of suspension. The prepared membrane suspension (10 times concentrated) is aliquoted in 1.0 ml volumes and stored at −70° C. until used in subsequent binding experiments.
Binding experiments are performed in a 96 well microtiter plate format, in a total volume of 200 μl. […] The test compounds are added in 20.0 μl volume.
The reaction is allowed to proceed in the dark for 120 min at room temperature, at which time, the bound ligand-receptor complex is filtered off on a 96 well unifilter with a Packard Filtermate® 196 Harvester. The bound complex caught on the filter disk is allowed to air dry and the radioactivity is measured in a Packard TopCount® equipped with six photomultiplier detectors, after the addition of 40.0 μl Microscint®-20 scintillant to each shallow well. The unifilter plate is heat-sealed and counted in a PackardTopCount® with a tritium efficiency of 31.0%.
Binding in the presence of varying concentrations of test compound is expressed as a percentage of specific binding in the absence of test compound. The results are plotted as log % bound versus log concentration of test compound. […] A linear regression line of data points is plotted, from which the IC50 value is determined and the Ki value is determined based upon the following equation: Ki=IC50/(1+L/KD) where L is the concentration of the radioactive ligand used and KD is the dissociation constant of the ligand for the receptor, both expressed in nM.
Turning to `O=c1n(C2=CCNCC2)c2ccccc2n1S(=O)(=O)c1c(Cl)nc2ccccn12` [Example 51, 1-[(2-chloroimidazo[1,2-a]pyridin-3-yl)sulfonyl]-3-(1,2,3,6-tetrahydropyridin-4-yl)-1,3-dihydro-2H-benzimidazol-2-one], the Ki stood at 19 nM. In other words, the double-digit nanomolar range. In the case of `Cc1nc(S(=O)(=O)n2c(=O)n(C3=CCNCC3)c3ccccc32)cn1C` [Example 52, 1-[(1,2-dimethyl-1H-imidazol-4-yl)sulfonyl]-3-(1,2,3,6-tetrahydropyridin-4-yl)-1,3-dihydro-2H-benzimidazol-2-one] it was 133 nM. `Cc1nn(C)c(Cl)c1S(=O)(=O)n1c(=O)n(C2=CCNCC2)c2ccccc21` [Example 53, 1-[(5-chloro-1,3-dimethyl-1H-pyrazol-4-yl)sulfonyl]-3-(1,2,3,6-tetrahydropyridin-4-yl)-1,3-dihydro-2H-benzimidazol-2-one] gave an inhibition constant (Ki) of 28 nM. With `Cc1noc(C)c1S(=O)(=O)n1c(=O)n(C2=CCNCC2)c2ccccc21` [Example 54, 1-[(3,5-dimethylisoxazol-4-yl)sulfonyl]-3-(1,2,3,6-tetrahydropyridin-4-yl)-1,3-dihydro-2H-benzimidazol-2-one] the figure was 51 nM; with `O=c1n(C2=CCNCC2)c2ccccc2n1S(=O)(=O)c1cccc2nsnc12` [Example 55, 1-(2,1,3-benzothiadiazol-4-ylsulfonyl)-3-(1,2,3,6-tetrahydropyridin-4-yl)-1,3-dihydro-2H-benzimidazol-2-one], 12 nM.

The values above are taken from US7544701B2, “Sulfonyldihydrobenzimidazolone compounds as 5-hydroxytryptamine-6 ligands” (Wyeth, priority 2003, dated 2009).
